# System: 926638-142-R-J1-PDC complex spheroid viability
# Assay: Anticancer human tumor 926638-142-R-J1-PDC patient-derived endometrial carcinoma cell line growth inhibition [POLQ]
# Settings: for IC50: curve of first compound; for viability, T/C: stronger effect = lower value
# In short: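 Three-cell-type spheroids modelling solid tumor plus stroma served as the readout system; POL inhibitors were tested individually and in combination, concentration ranges set by clinical Cmax where known.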
# [1] = second compound 0.0316 µM, first compound 0.0316 µM
# [2] = second compound 0.0316 µM, first compound 0.1 µM
# [3] = second compound 0.0316 µM, first compound 0.316 µM
# [4] = second compound 0.0316 µM, first compound 1 µM
# [5] = second compound 0.0316 µM, first compound 3.16 µM
# [6] = second compound 0.0316 µM, first compound 10 µM
# [7] = second compound 0.1 µM, first compound 0.0316 µM
# [8] = second compound 0.1 µM, first compound 0.1 µM
# [9] = second compound 0.1 µM, first compound 0.316 µM
# [10] = second compound 0.1 µM, first compound 1 µM
# [11] = second compound 0.1 µM, first compound 3.16 µM
# [12] = second compound 0.1 µM, first compound 10 µM
# [13] = second compound 0.316 µM, first compound 0.0316 µM
# [14] = second compound 0.316 µM, first compound 0.1 µM
# [15] = second compound 0.316 µM, first compound 0.316 µM
# [16] = second compound 0.316 µM, first compound 1 µM
# [17] = second compound 0.316 µM, first compound 3.16 µM
# [18] = second compound 0.316 µM, first compound 10 µM
# [19] = second compound 1 µM, first compound 0.0316 µM
# [20] = second compound 1 µM, first compound 0.1 µM
# [21] = second compound 1 µM, first compound 0.316 µM
# [22] = second compound 1 µM, first compound 1 µM
# [23] = second compound 1 µM, first compound 3.16 µM
# [24] = second compound 1 µM, first compound 10 µM
# [25] = second compound 3.16 µM, first compound 0.0316 µM
# [26] = second compound 3.16 µM, first compound 0.1 µM
# [27] = second compound 3.16 µM, first compound 0.316 µM
# [28] = second compound 3.16 µM, first compound 1 µM
# [29] = second compound 3.16 µM, first compound 3.16 µM
# [30] = second compound 3.16 µM, first compound 10 µM
# [31] = second compound 10 µM, first compound 0.0316 µM
# [32] = second compound 10 µM, first compound 0.1 µM
# [33] = second compound 10 µM, first compound 0.316 µM
# [34] = second compound 10 µM, first compound 1 µM
# [35] = second compound 10 µM, first compound 3.16 µM
# [36] = second compound 10 µM, first compound 10 µM
# 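Note: spheroids exposed to drugs for one week before readout.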
# 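Throughout, for viability, T/C: percent viability relative to DMSO vehicle control wells set as 100%.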
structure (smiles),measurement,setting,value
O=C(Nc1ccc(O)c(NS(=O)(=O)c2ccc(F)cc2)c1)c1ccc(-c2ccccc2)cc1 + COC1C(OC(N)=O)C(O)C(Oc2ccc3c(O)c(NC(=O)c4ccc(O)c(CC=C(C)C)c4)c(=O)oc3c2C)OC1(C)C,IC50,second compound 0.0316 µM,> 10 µM
same,IC50,second compound 0.1 µM,> 10 µM
same,IC50,second compound 0.316 µM,> 10 µM
same,IC50,second compound 1 µM,> 10 µM
same,IC50,second compound 3.16 µM,> 10 µM
same,IC50,second compound 10 µM,> 10 µM
same,"viability, T/C",[1],89.2%
same,"viability, T/C",[2],87.5%
same,"viability, T/C",[3],109%
same,"viability, T/C",[4],99.4%
same,"viability, T/C",[5],103%
same,"viability, T/C",[6],69.1%
same,"viability, T/C",[7],91%
same,"viability, T/C",[8],96.8%
same,"viability, T/C",[9],98.6%
same,"viability, T/C",[10],101%
same,"viability, T/C",[11],94.8%
same,"viability, T/C",[12],87.3%
same,"viability, T/C",[13],108%
same,"viability, T/C",[14],101%
same,"viability, T/C",[15],82.2%
same,"viability, T/C",[16],101%
same,"viability, T/C",[17],94.8%
same,"viability, T/C",[18],66%
same,"viability, T/C",[19],90.6%
same,"viability, T/C",[20],88.4%
same,"viability, T/C",[21],89.6%
same,"viability, T/C",[22],98.3%
same,"viability, T/C",[23],99.9%
same,"viability, T/C",[24],80.9%
same,"viability, T/C",[25],108%
same,"viability, T/C",[26],88.3%
same,"viability, T/C",[27],94.5%
same,"viability, T/C",[28],118%
same,"viability, T/C",[29],94.6%
same,"viability, T/C",[30],85.7%
same,"viability, T/C",[31],97.7%
same,"viability, T/C",[32],103%
same,"viability, T/C",[33],93.8%
same,"viability, T/C",[34],94.7%
same,"viability, T/C",[35],104%
same,"viability, T/C",[36],69.4%
O=c1[nH]cc(F)c(=O)[nH]1 + COC1C(OC(N)=O)C(O)C(Oc2ccc3c(O)c(NC(=O)c4ccc(O)c(CC=C(C)C)c4)c(=O)oc3c2C)OC1(C)C,IC50,second compound 0.0316 µM,> 10 µM
same,IC50,second compound 0.1 µM,> 10 µM
same,IC50,second compound 0.316 µM,> 10 µM
same,IC50,second compound 1 µM,> 10 µM
same,IC50,second compound 3.16 µM,> 10 µM
same,IC50,second compound 10 µM,> 10 µM
same,"viability, T/C",[1],124%
same,"viability, T/C",[2],110%
same,"viability, T/C",[3],94.1%
same,"viability, T/C",[4],101%
same,"viability, T/C",[5],98.4%
same,"viability, T/C",[6],94.1%
same,"viability, T/C",[7],106%
same,"viability, T/C",[8],90.8%
same,"viability, T/C",[9],104%
same,"viability, T/C",[10],90.4%
same,"viability, T/C",[11],103%
same,"viability, T/C",[12],71%
same,"viability, T/C",[13],125%
same,"viability, T/C",[14],105%
same,"viability, T/C",[15],87.3%
same,"viability, T/C",[16],84.1%
same,"viability, T/C",[17],98.2%
same,"viability, T/C",[18],82.7%
same,"viability, T/C",[19],98.3%
same,"viability, T/C",[20],106%
same,"viability, T/C",[21],90.1%
same,"viability, T/C",[22],79.6%
same,"viability, T/C",[23],79.3%
same,"viability, T/C",[24],75.4%
same,"viability, T/C",[25],102%
same,"viability, T/C",[26],85.9%
same,"viability, T/C",[27],90.6%
same,"viability, T/C",[28],86.9%
same,"viability, T/C",[29],79.5%
same,"viability, T/C",[30],83.6%
same,"viability, T/C",[31],104%
same,"viability, T/C",[32],96.6%
same,"viability, T/C",[33],77.1%
same,"viability, T/C",[34],86.6%
same,"viability, T/C",[35],114%
same,"viability, T/C",[36],83.4%

# — PubChem BioAssay AID1963826 (Molecular Pharmacology Branch, DTP, NCI, 2024)
